Laboratory results: US12478689B2, “Anti-CD19 antibody drug conjugates” (AbbVie Biotherapeutics Inc., priority 2022, dated 2025)
pEC50: −log10 of the molar value.

Legend:
[1] = tested on: RS4;11 tumors; test: ALL subcutaneous xenograft in CB17/SCID mice; assay type: in vivo; details: FIG. 11; fucosylated mAb and ADC-1 used; prednisolone [QD×5]×3; ADC-1 single low dose
Description: Food and water were available ad libitum.
Intraperitoneal route of administration was used.
Tumor volume was estimated one to two times weekly.

[2] = tested on: RS4;11 (ALL); details: read-out: EC50 in vitro cytotoxicity (% cell viability), 5-day compound treatment, FIG. 1
[3] = tested on: Farage, SU-DHL-6, OCI-LY19 cells; details: GRM 100 nM, ADC-1 1 μM; all 3 cell lines

Structure (SMILES) | Anti-tumor activity [1] | pEC50 [2] | Apoptosis (BIM, cleaved caspase-3, cleaved PARP) [3]
C[C@]12C=CC(=O)C=C1CC[C@@H]1[C@@H]2[C@@H](O)C[C@@]2(C)[C@H]1CC[C@]2(O)C(=O)CO [prednisolone, reference compound] | modest anti-tumor activity | 7.08 | 
C[C@]12C=CC(=O)C=C1[C@@H](F)C[C@H]1[C@@H]3C[C@H]4O[C@@H](c5ccc(Cc6cccc(N)c6)cc5)O[C@@]4(C(=O)CO)[C@@]3(C)C[C@H](O)[C@@]12F [Compound of Formula IV, (2S,6aS,6bR,7S,8aS,8bS,10R,11aR,12aS,12bS)-10-(4-(3-Aminobenzyl)phenyl)-2,6b-difluoro-7-hydroxy-8b-(2-hydroxyacetyl)-6a,8a-dimethyl-1,2,6a,6b,7,8,8a,8b,11a,12,12a,12b-dodecahydro-4H-naphtho[2′,1′:4,5]indeno[1,2-d][1,3]dioxol-4-one] |  |  | induced apoptosis
C[C@@H]1C[C@H]2[C@@H]3CCC4=CC(=O)C=C[C@]4(C)[C@@]3(F)[C@@H](O)C[C@]2(C)[C@@]1(O)C(=O)CO [dexamethasone] |  | 8.48 | 
